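1) Cells in 96-well plates. 2) Compound, 48 h, 5 concentrations. 3) Linear interpolation between surrounding doses. 4) Unreached endpoint = highest concentration. At the GI50, growth is halved. TGI: total growth inhibition.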
Legend:
Assay in all cases: NCI anticancer screen, dose series, 48 h
[1] = tested on: SNB-75 CNS
[2] = tested on: MALME-3M melanoma
[3] = tested on: HCT-15 colon
[4] = tested on: U251 CNS
[5] = tested on: NCI-H23 lung
[6] = tested on: HL-60(TB) leukemia
[7] = tested on: SN12C renal
[8] = tested on: A549 NSCLC
[9] = tested on: ACHN renal
[10] = tested on: CCRF-CEM leukemia
[11] = tested on: HCC-2998 colon
[12] = tested on: HOP-92 NSCLC
[13] = tested on: NCI-H522 lung
[14] = tested on: SW-620 colon
[15] = tested on: SF-539 CNS
[16] = tested on: NCI-H226 lung
[17] = tested on: NCI/ADR-RES ovarian
[18] = tested on: SF-295 CNS
[19] = tested on: SK-OV-3 ovarian
[20] = tested on: TK-10 renal
[21] = tested on: UO-31 renal
[22] = tested on: SK-MEL-28 melanoma
[23] = tested on: T-47D breast
[24] = tested on: HOP-62 NSCLC
[25] = tested on: UACC-62 melanoma
[26] = tested on: OVCAR-4 ovarian
[27] = tested on: SNB-19 CNS
[28] = tested on: OVCAR-5 ovarian
[29] = tested on: NCI-H460 lung
[30] = tested on: UACC-257 melanoma
[31] = tested on: A498 renal
[32] = tested on: OVCAR-8 ovarian
[33] = tested on: SK-MEL-2 melanoma
[34] = tested on: EKVX NSCLC
[35] = tested on: RPMI-8226 leukemia
[36] = tested on: K-562 leukemia
[37] = tested on: LOX IMVI melanoma
[38] = tested on: 786-0 renal
[39] = tested on: HS 578T breast
[40] = tested on: MOLT-4 leukemia
[41] = tested on: DU-145 prostate
[42] = tested on: BT-549 breast
[43] = tested on: PC-3 prostate
[44] = tested on: SF-268 CNS
[45] = tested on: SK-MEL-5 melanoma
[46] = tested on: KM12 colon
[47] = tested on: RXF 393 renal
[48] = tested on: MDA-MB-468 breast
[49] = tested on: OVCAR-3 ovarian
[50] = tested on: MCF7 breast
[51] = tested on: MDA-MB-435
[52] = tested on: MDA-MB-231 breast
[53] = tested on: HT29 colon
[54] = tested on: CAKI-1 renal
[55] = tested on: COLO 205 colon
[56] = tested on: IGROV1 ovarian
[57] = tested on: HCT-116 colon
[58] = tested on: M14 melanoma

`Cc1ccc(S(=O)(=O)c2nc(S(=O)(=O)c3ccc(C)cc3)c(Cl)s2)cc1` was tested, and the GI50 [1] was over 100 µM, the TGI [1] was over 100 µM and the GI50 [2] was over 100 µM. The TGI [2] was over 100 µM, the GI50 [3] was over 100 µM and the TGI [3] was over 100 µM. It also gave a GI50 [4] of over 100 µM, a TGI [4] of over 100 µM and a GI50 [5] of over 100 µM. It also gave a TGI [5] of over 100 µM, a GI50 [6] of over 100 µM and a TGI [6] of over 100 µM. It also gave a GI50 [7] of over 100 µM, a TGI [7] of over 100 µM and a GI50 [8] of over 100 µM. The TGI [8] was over 100 µM, the GI50 [9] was over 100 µM and the TGI [9] was over 100 µM. It also gave a GI50 [10] of over 100 µM, a TGI [10] of over 100 µM and a GI50 [11] of over 100 µM. The TGI [11] was over 100 µM, the GI50 [12] was over 100 µM and the TGI [12] was over 100 µM. For the same compound, the GI50 [13] was over 100 µM, the TGI [13] was over 100 µM and the GI50 [14] was over 100 µM. It also gave a TGI [14] of over 100 µM, a GI50 [15] of over 100 µM and a TGI [15] of over 100 µM. For the same compound, the GI50 [16] was over 100 µM, the TGI [16] was over 100 µM and the GI50 [17] was over 100 µM. It also gave a TGI [17] of over 100 µM, a GI50 [18] of over 100 µM and a TGI [18] of over 100 µM. The GI50 [19] was over 100 µM, the TGI [19] was over 100 µM and the GI50 [20] was over 100 µM. For the same compound, the TGI [20] was over 100 µM, the GI50 [21] was over 100 µM and the TGI [21] was over 100 µM. It also gave a GI50 [22] of over 100 µM, a TGI [22] of over 100 µM and a GI50 [23] of over 100 µM. It also gave a TGI [23] of over 100 µM, a GI50 [24] of over 100 µM and a TGI [24] of over 100 µM. For the same compound, the GI50 [25] was over 100 µM, the TGI [25] was over 100 µM and the GI50 [26] was over 100 µM. For the same compound, the TGI [26] was over 100 µM, the GI50 [27] was over 100 µM and the TGI [27] was over 100 µM. For the same compound, the GI50 [28] was over 100 µM, the TGI [28] was over 100 µM and the GI50 [29] was over 100 µM. For the same compound, the TGI [29] was over 100 µM, the GI50 [30] was over 100 µM and the TGI [30] was over 100 µM. It also gave a GI50 [31] of over 100 µM, a TGI [31] of over 100 µM and a GI50 [32] of over 100 µM. For the same compound, the TGI [32] was over 100 µM, the GI50 [33] was over 100 µM and the TGI [33] was over 100 µM. It also gave a GI50 [34] of over 100 µM, a TGI [34] of over 100 µM and a GI50 [35] of over 100 µM. It also gave a TGI [35] of over 100 µM, a GI50 [36] of over 100 µM and a TGI [36] of over 100 µM. The GI50 [37] was over 100 µM, the TGI [37] was over 100 µM and the GI50 [38] was over 100 µM. It also gave a TGI [38] of over 100 µM, a GI50 [39] of over 100 µM and a TGI [39] of over 100 µM. The GI50 [40] was over 100 µM, the TGI [40] was over 100 µM and the GI50 [41] was over 100 µM. It also gave a TGI [41] of over 100 µM, a GI50 [42] of over 100 µM and a TGI [42] of over 100 µM. It also gave a GI50 [43] of over 100 µM, a TGI [43] of over 100 µM and a GI50 [44] of over 100 µM. The TGI [44] was over 100 µM, the GI50 [45] was over 100 µM and the TGI [45] was over 100 µM. It also gave a GI50 [46] of over 100 µM, a TGI [46] of over 100 µM and a GI50 [47] of over 100 µM. It also gave a TGI [47] of over 100 µM, a GI50 [48] of over 100 µM and a TGI [48] of over 100 µM. For the same compound, the GI50 [49] was over 100 µM, the TGI [49] was over 100 µM and the GI50 [50] was over 100 µM. It also gave a TGI [50] of over 100 µM, a GI50 [51] of over 100 µM and a TGI [51] of over 100 µM. The GI50 [52] was over 100 µM, the TGI [52] was over 100 µM and the GI50 [53] was over 100 µM. For the same compound, the TGI [53] was over 100 µM, the GI50 [54] was over 100 µM and the TGI [54] was over 100 µM. The GI50 [55] was over 100 µM, the TGI [55] was over 100 µM and the GI50 [56] was over 100 µM. For the same compound, the TGI [56] was over 100 µM, the GI50 [57] was over 100 µM and the TGI [57] was over 100 µM. It also gave a GI50 [58] of over 100 µM and a TGI [58] of over 100 µM.
